Reference: patent US10399924B2, “Deuterium substituted fumarate derivatives” (Biogen MA Inc., priority 2012, dated 2019)
Where a name gives a salt, the structure may show the parent alone. Read-outs that look alike come from different tables or passages of the source.

Key:
Nrf2-Keap1 Pathway = assay: DiscoverRx PathHunter Nrf2-Keap1 nuclear translocation biosensor assay; type: cell-based; settings: agonist mode, 6 hours incubation at room temperature; read-out: Nrf2 activation EC50
From the text: The PathHunter® Nuclear Translocation assay detects translocation of a target protein to, or from, the nucleus. In this system, Prolink™ (PK), a small enzyme fragment, is fused to the protein of interest and Enzyme Acceptor (EA) is localized in the nucleus. Activation of the signaling pathway induces the target protein to either transit into the nucleus, thus forcing complementation of the PK and EA fragments, or out of the nucleus, hindering complementation of the fragments. PathHunter Pathway cell lines were expanded from freezer stocks according to standard procedures. 5000 cells were seeded in Cell Plating Reagent 0 (containing 1% FBS) to a total volume of 20 μL into white walled, 384-well microplates and incubated for the overnight prior to testing. For Agonist determination, cells were incubated with sample to induce response. Dilution of sample stocks was performed to generate 100× sample in DMSO. […] Vehicle concentration was 1%. Assay signal was generated through a single addition of 25 μL (100% v/v) of PathHunter Flash Detection reagent, followed by a one hour incubation at room temperature. Microplates were read following signal generation with a PerkinElmer Envision™ instrument for chemiluminescent signal detection. Compound activity was analyzed using CBIS data analysis suite (ChemInnovation, CA). For agonist mode assays, percentage activity was calculated using the following formula: % Activity=100%×(mean RLU of test sample−mean RLU of vehicle control)/(mean MAX RLU control ligand−mean RLU of vehicle control).

[1] = test system: Nrf2 (ARE-luciferase reporter), DLD-1/ARE-E2; assay: ARE-luciferase reporter assay of Nrf2 activation, DLD-1/ARE-E2 cells; type: cell-based, human; settings: summary for DLD-1 and MCF-7 reporter cell lines
Experimental: Human cancer cell line DLD-1 and breast cancer cell line MCF7 reporter stable cell lines were generated by transfection with a firefly luciferase reporter construct harboring the luciferase cDNA cloned downstream of eight catenated copies of the antioxidant response element ([…] ID NO.:1). See Wang et al. Cancer Res. 2006; 66:10983-94. To measure Nrf2 activation in the ARE-luciferase reporter cell lines, the cells were plated in 96-well plates at 20-50 k cells/well 24 hours prior to stimulation with the test compounds. […] The reporter cells were harvested 24 hours-48 hours after addition of the compounds and lysed for detection of luciferase activity. Luciferase activity in the lysates was monitored using the Bright-Glo Luciferase Assay System of Promega and Tecan Genios Pro plate reader. Luciferase induction in the compound-treated cells was calculated as fold change over the baseline activity detected in control cultures treated with DMSO-containing media.

[2] = Oral cassette co-administration PK with DMF in male SD rats (plasma, LC/MS/MS); settings: equivalent oral dose of 50 mg/kg of DMF, same study
[3] = Oral PK at 100 mg/kg in male SD rats; settings: in vivo, rat, read-out: half-life of MMF (converted)
Experimental: The concentration of the compounds was determined by LC/MS/MS. […] The concentration of D-MMF was determined by LC/MS/MS. […] The concentration of D-MMF was determined by LC/MS/MS.

EC50 (Nrf2-Keap1 Pathway) [µM]	oral exposure compared to DMF [2]	half-life ([3]; male, SD, 100 mg/Kg oral dose) [min]	half-life ([3]; oral, 100 mg/Kg, species not stated for this figure) [min]	Compound	activation of ARE-dependent signaling of the luciferase reporter construct [1]
5.4				COC(=O)/C=C/C(=O)OC [DMF, dimethyl fumarate, reference compound]	
6.57	higher oral exposure			O=C(O)/C=C/C(=O)O.[2H]C([2H])([2H])OC(=O)/C=C/C(=O)OC([2H])([2H])[2H] [Example 1, (^2H6)dimethyl Fumaric Acid Ester]	able to activate ARE-dependent signaling
				O=C(O)/C=C/C(=O)O.[2H]C([2H])([2H])OC(=O)/C=C/C(=O)O [Example 2, (^2H3)methyl Fumaric Acid Ester]	able to activate ARE-dependent signaling
4.78	higher oral exposure			[2H]/C(C(=O)OC)=C(/[2H])C(=O)OC [Example 4]	
7.97	higher oral exposure			[2H]/C(C(=O)O)=C(/[2H])C(=O)O.[2H]/C(C(=O)OC([2H])([2H])[2H])=C(/[2H])C(=O)OC([2H])([2H])[2H] [Example 8]	
		54	~60	COC(=O)/C=C/C(=O)O [MMF, monomethyl fumarate]	
